Assay results as given in patent US5770597A, “Quinolone derivatives and processes for preparing the same” (Korea Research Institute of Chemical Technology, priority 1993, dated 1998).
≈ marks a conversion by molar mass, not a printed value. Where two headings read alike, the source gives them in different places.

Key:
[1] = system: Enterobacter cloacae 1321E; experiment: In vitro antibacterial activity (MIC), agar two-fold dilution; type: cell-based; conditions: Mueller-Hinton agar, 10^7 CFU/ml, 37° C., 18 hours
Experimental: (§1) The numbers in Tables represent the minimal inhibitory concentration (MIC, μg/ml) of the corresponding strains and MIC was determined in accordance with the agar culture medium two-fold dilution method by using a Mueller-Hinton agar.
(§2) Hoechst standard strains were used.

[2] = system: Escherichia coil 1507E; experiment: as above; type: cell-based, Escherichia coli; conditions: Mueller-Hinton agar, 10^7 CFU/ml, 37° C., 18 hours
Experimental: as §1
(§3) Hoechst standard strains were used. […]

[3] = system: Escherichia coil DC 0; experiment: as above; type: cell-based, Escherichia coli
Experimental: as §1, §3

[4] = system: Escherichia coil DC 2; experiment: as above; type: cell-based, Escherichia coli
Experimental: as §1, §3

[5] = system: Escherichia coil TEM; experiment: as above; type: cell-based, Escherichia coli
Experimental: as §1, §3

[6] = system: Pseudomonas aeruginosa 1771; experiment: as above; type: cell-based
Experimental: as §1, §3

[7] = system: Escherichia coli O 78; experiment: as above; type: cell-based; conditions: 10^7 CFU/ml, 37° C., 18 hours
Experimental: as §1, §3

[8] = system: Klebsiella aerogenes 1552E; experiment: as above; type: cell-based
Experimental: as §1, §3

[9] = system: Pseudomonas aeruginosa 1592E; experiment: as above; type: cell-based
Experimental: as §1, §3

[10] = system: Pseudomonas aeruginosa 9027; experiment: as above; type: cell-based
Experimental: as §1, §3

[11] = system: Staphylococcus aureus SG 511; experiment: as above; type: cell-based
Experimental: as §1, §3

[12] = system: Klebsiella aerogenes 1082E; experiment: as above; type: cell-based
Experimental: as §1, §3

[13] = system: Streptococcus faecium MD 8b; experiment: as above; type: cell-based
Experimental: as §1, §3

[14] = system: Staphylococcus aureus 285; experiment: as above; type: cell-based
Experimental: as §1, §3

[15] = system: Streptococcus pyogenes 77A; experiment: as above; type: cell-based
Experimental: as §1, §3

[16] = system: Staphylococcus aureus 503; experiment: as above; type: cell-based
Experimental: as §1, §3

[17] = system: Streptococcus pyogenes 308A; experiment: as above; type: cell-based
Experimental: as §1, §3

[18] = system: Salmonella typhimurium; experiment: as above; type: cell-based
Experimental: as §1, §3

[19] = system: Enterobacter cloacae P 99; type: cell-based; conditions: Mueller-Hinton agar, 10^7 CFU/ml, 37° C., 18 hours
Experimental: as §1, §2

[20] = system: Pseudomonas aeruginosa 1771M; experiment: In vitro antibacterial activity (MIC), agar two-fold dilution; type: cell-based; conditions: 18 h
Experimental: as §1, §3

[21] = Escherichia coil DC 0, Mueller-Hinton agar, 10^7 CFU/ml, 37° C., 18 hours
[22] = Escherichia coil DC 2, Mueller-Hinton agar, 10^7 CFU/ml, 37° C., 18 hours
[23] = Escherichia coil TEM, Mueller-Hinton agar, 10^7 CFU/ml, 37° C., 18 hours
[24] = Pseudomonas aeruginosa 1771, Mueller-Hinton agar, 10^7 CFU/ml, 37° C., 18 hours
[25] = Klebsiella aerogenes 1552E, Mueller-Hinton agar, 10^7 CFU/ml, 37° C., 18 hours
[26] = Pseudomonas aeruginosa 1592E, Mueller-Hinton agar, 10^7 CFU/ml, 37° C., 18 hours
[27] = Pseudomonas aeruginosa 9027, Mueller-Hinton agar, 10^7 CFU/ml, 37° C., 18 hours
[28] = Staphylococcus aureus SG 511, Mueller-Hinton agar, 10^7 CFU/ml, 37° C., 18 hours
[29] = Klebsiella aerogenes 1082E, Mueller-Hinton agar, 10^7 CFU/ml, 37° C., 18 hours
[30] = Streptococcus faecium MD 8b, Mueller-Hinton agar, 10^7 CFU/ml, 37° C., 18 hours
[31] = Staphylococcus aureus 285, Mueller-Hinton agar, 10^7 CFU/ml, 37° C., 18 hours
[32] = Streptococcus pyogenes 77A, Mueller-Hinton agar, 10^7 CFU/ml, 37° C., 18 hours
[33] = Staphylococcus aureus 503, Mueller-Hinton agar, 10^7 CFU/ml, 37° C., 18 hours
[34] = Streptococcus pyogenes 308A, Mueller-Hinton agar, 10^7 CFU/ml, 37° C., 18 hours
[35] = Salmonella typhimurium, Mueller-Hinton agar, 10^7 CFU/ml, 37° C., 18 hours

SMILES | MIC [1] | MIC [2] | MIC [3, 21] | MIC [4, 22] | MIC [5, 23] | MIC [6, 24] | MIC ([7]; Mueller-Hinton agar) | MIC [8, 25] | MIC [9, 26] | MIC [10, 27] | MIC [11, 28] | MIC [12, 29] | MIC [13, 30] | MIC [14, 31] | MIC [15, 32] | MIC [16, 33] | MIC [17, 34] | MIC [18, 35] | MIC [19] | also measured
COc1c(N2CC3CCCNC3C2)c(F)cc2c(=O)c(C(=O)C[N+](=O)[O-])cn(C3CC3)c12.Cl (racemic) [C, 1-cyclopropyl-3-nitroacetyl-6-fluoro-8-methoxy-7-[(trans-piperidinopyrrolidine)-8-yl]-4-oxo-1,4-dihydroquinoline hydrochloride] | < 0.002 mg/L | 0.025 mg/L | 0.195 mg/L | 0.098 mg/L | 0.004 mg/L | 0.781 mg/L | < 0.002 mg/L | 0.013 mg/L | 0.781 mg/L | 0.781 mg/L | 0.098 mg/L | 0.049 mg/L | 0.391 mg/L | 0.025 mg/L | 0.391 mg/L | 0.025 mg/L | 0.781 mg/L | 0.007 mg/L | 0.004 mg/L | –
Cl.O=C(C[N+](=O)[O-])c1cn(C2CC2)c2c(Cl)c(N3CC4CCCNC4C3)c(F)cc2c1=O (racemic) [B, 1-cyclopropyl-3-nitroacetyl-6-fluoro-8-chloro-7-[(trans-piperidinopyrrolidine)-8-yl]-4-oxo-1,4-dihydroquinoline hydrochloride] | 0.013 mg/L | 0.049 mg/L | 0.391 mg/L | 0.098 mg/L | 0.049 mg/L | 1.563 mg/L | < 0.025 mg/L | 0.098 mg/L | 0.781 mg/L | 0.781 mg/L | 0.098 mg/L | 0.098 mg/L | 0.195 mg/L | 0.098 mg/L | 0.195 mg/L | 0.195 mg/L | 0.781 mg/L | 0.049 mg/L | 0.025 mg/L | –
O=C(O)c1cn(C2CC2)c2c(Cl)c(N3CC4CCCNC4C3)c(F)cc2c1=O (stereo not drawn) [A, 1-cyclopropyl-6-fluoro-7-[(trans-piperidinopyrrolidine)-8-yl]-8-chloro-1,4-dihydroguinoline-4-oxo-3-carboxylicacid] | < 0.002 mg/L | 0.025 mg/L (≈ 0.0616 µM) | 0.195 mg/L (≈ 0.48 µM) | 0.013 mg/L (≈ 0.032 µM) | 0.007 mg/L (≈ 0.0172 µM) | 0.781 mg/L (≈ 1.92 µM) | < 0.002 mg/L | 0.049 mg/L (≈ 0.121 µM) | 0.781 mg/L (≈ 1.92 µM) | 0.781 mg/L (≈ 1.92 µM) | 0.025 mg/L (≈ 0.0616 µM) | < 0.002 mg/L | 0.098 mg/L (≈ 0.241 µM) | 0.025 mg/L (≈ 0.0616 µM) | 0.098 mg/L (≈ 0.241 µM) | 0.025 mg/L (≈ 0.0616 µM) | 0.391 mg/L (≈ 0.963 µM) | < 0.002 mg/L | 0.004 mg/L (≈ 0.00986 µM) | –
COc1c(N2C[C@@H]3CCCN[C@@H]3C2)c(F)cc2c(=O)c(C(=O)C[N+](=O)[O-])cn(C3CC3)c12.Cl (racemic) [D, 1-cyclopropyl-3-nitroacetyl-6-fluoro-8-methoxy-7-[(cis-piperidinopyrrolidine)-8-yl]-4-oxo-1,4-dihydroquinoline hydrochloride] | 0.013 mg/L | 0.098 mg/L | 0.195 mg/L | 0.098 mg/L | 0.098 mg/L | 0.781 mg/L | 0.049 mg/L | 0.049 mg/L | 0.781 mg/L | 1.563 mg/L | 0.195 mg/L | 0.049 mg/L | 0.391 mg/L | 0.391 mg/L | 0.391 mg/L | 0.391 mg/L | 1.563 mg/L | 0.098 mg/L | 0.013 mg/L | –
O=C(O)c1cn(C2CC2)c2cc(N3CCNCC3)c(F)cc2c1=O [Ciprofloxacin, ciprofloxacin, reference compound] | – | – | – | – | – | – | – | – | – | – | – | – | – | – | – | – | – | – | – | MIC ([2]; read-out: MIC): 0.007 mg/L (≈ 0.0211 µM); MIC ([3]; Escherichia, DC0, 18 h): 0.195 mg/L (≈ 0.589 µM); MIC ([4]; Escherichia, DC2, 18 h): 0.098 mg/L (≈ 0.296 µM); MIC ([5]; Escherichia, 18 h): 0.007 mg/L (≈ 0.0211 µM); MIC ([6]; Pseudomonas aeruginosa, 1771, 18 h): 0.195 mg/L (≈ 0.589 µM); MIC ([7]; O78, Mueller-Hinton agar, read-out: MIC): < 0.002 mg/L; MIC ([8]; Klebsiella aerogenes, 1552E, 18 h): 0.013 mg/L (≈ 0.0392 µM); MIC ([9]; Pseudomonas aeruginosa, 1592E, 18 h): 0.195 mg/L (≈ 0.589 µM); MIC ([10]; Pseudomonas aeruginosa, 9027, 18 h): 0.391 mg/L (≈ 1.18 µM); MIC ([11]; Staphylococcus aureus, SG511, 18 h): 0.195 mg/L (≈ 0.589 µM); MIC [20]: 0.049 mg/L (≈ 0.148 µM); MIC ([12]; Klebsiella aerogenes, 1082E, 18 h): < 0.002 mg/L; MIC ([13]; Enterococcus faecium, MD8B, 18 h): 0.781 mg/L (≈ 2.36 µM); MIC ([14]; Staphylococcus aureus, 285, 18 h): 0.391 mg/L (≈ 1.18 µM); MIC ([15]; Streptococcus pyogenes, 77A, 18 h): 0.781 mg/L (≈ 2.36 µM); MIC ([16]; Staphylococcus aureus, 503, 18 h): 0.781 mg/L (≈ 2.36 µM); MIC ([17]; Streptococcus pyogenes, 308A, 18 h): 3.12 mg/L (≈ 9.43 µM); MIC ([18]; Salmonella enterica, TYPHIMURIUM, 18 h): 0.007 mg/L (≈ 0.0211 µM)
